{
  "source": "patent US5324502A",
  "about": "“Radiopharmaceuticals for imaging the heart” (priority 1992, dated 1994)",
  "key": {"[1]": {"test": "PET imaging of the heart with the 68Ga complex", "conditions": "dog, 20 mCi bolus i.v.", "excerpt": "The dog was placed in a plexiglass holder and positioned within the PET VI camera, a positron emission tomograph that permits simultaneous acquisition of seven transverse tomographic slices with a slice-to-slice separation of 1.44 cm, a slice thickness of 1.39 cm, and a reconstructed resolution of 12.0 mm (full width at half maximum). A transmission scan, necessary for attenuation correction, was obtained using an external ring of ^68 Ge/^68 Ga. A ^15 O-myocardial perfusion image was then obtained for reference employing ^15 O-water and ^15 O-carbon monoxide in a standard PET protocol. After decay of the ^15 O activity to background levels, the ^68 Ga-bis(4,6-dimethoxysalicylaldimino)-N,N'-bis(aminopropyl) ethylene-diamine radiopharmaceutical (20 mCi) was administered to the dog as a bolus intravenous injection. Dynamic PET data was collected for ten 1 minute frames commencing at the time of ^68 Ga injection, followed by eight consecutive 10 minute static images. PET images of the chest were reconstructed from each of the ten one minute frames and each of the eight 10 minute frames. […] Regions-of-interest were defined in the ^68 Ga images allowing quantitative determination of regional myocardial tissue concentrations of tracer."}, "[2]": {"test": "Octanol/water partition coefficient of radiolabeled gallium complexes", "assay_type": "physicochemical", "conditions": "1-octanol / isotonic Tris buffer pH 7.0", "protocol": "Octanol/water partition coefficients were measured by vortex mixing 1 mL of 1-octanol and 1 mL of isotonic Tris buffer (pH 7.0) with a 1-5 μL sample of the radiolabeled gallium complex. Following centrifugation at >1200 g for 5 minutes, the octanol and aqueous phases were sampled and counted in an automatic well counter."}, "[3]": {"conditions": "rat, i.v.; for Heart/Blood / Heart/Liver / Heart/Lungs: ratio", "how_it_was_run": "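Male Sprague-Dawley rats under ether anesthesia received 1 to 3 μCi of no-carrier-added Ga-67 complex as a femoral-vein bolus. Animals were killed at set times post-injection; organs weighed and counted. Values given as % injected dose per gram and per organ.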"}},
  "note": "Like-named read-outs stand apart in the source and are kept apart here.",
  "data": [
    {"compound": "COc1cc([O-])c(C=NCCCNCCNCCCN=Cc2c([O-])cc(OC)cc2OC)c(OC)c1.[68Ga+3]", "note": "[^68 Ga-bis(4,6-dimethoxysalicylaldimino)-N,N'-bis(aminopropyl)ethylenediamine]", "values": [
      {"measurement": "clearance of myocardial ^68 Ga radioactivity", "setting": "[1]; 90 minute imaging period", "value": "No clearance of myocardial ^68 Ga radioactivity was observed"},
      {"measurement": "delineation of the heart in ^68 Ga PET images", "setting": "[1]; beyond 20 minutes post-injection", "value": "the heart was clearly delineated in the ^68 Ga-images with good heart-to-blood and heart-to-lung contrast"}
    ]},
    {"compound": "^67 GaL^+ L = [(4-deaSal)2 DM-BAPEN, ^67 GaL^+ L = [bis(diethylaminosalicylaldimino)-N,N'-bis(2,2'-dimethyl-3-aminopropyl)ethylenediamine]]", "values": [
      {"measurement": "log P", "setting": "[2]", "value": 2.84},
      {"measurement": "% Injected Dose per Gram Tissue, Blood", "setting": "[3]; 1 min", "value": "1.91 ± 0.22 % Injected Dose per Gram Tissu"},
      {"measurement": "% Injected Dose per Gram Tissue, Brain", "setting": "[3]; 1 min", "value": "0.05 ± 0.01 % Injected Dose per Gram Tissu"},
      {"measurement": "% Injected Dose per Gram Tissue, Heart", "setting": "[3]; 1 min", "value": "0.85 ± 0.09 % Injected Dose per Gram Tissu"},
      {"measurement": "% Injected Dose per Gram Tissue, Kidney (one)", "setting": "[3]; 1 min", "value": "4.85 ± 0.75 % Injected Dose per Gram Tissu"},
      {"measurement": "% Injected Dose per Gram Tissue, Liver", "setting": "[3]; 1 min", "value": "4.91 ± 0.36 % Injected Dose per Gram Tissu"},
      {"measurement": "% Injected Dose per Gram Tissue, Lungs", "setting": "[3]; 1 min", "value": "4.23 ± 0.68 % Injected Dose per Gram Tissu"},
      {"measurement": "% Injected Dose per Gram Tissue, Spleen", "setting": "[3]; 1 min", "value": "1.61 ± 0.44 % Injected Dose per Gram Tissu"},
      {"measurement": "% Injected Dose per Organ, Blood", "setting": "[3]; 1 min", "value": "30.59 ± 3.45", "unit": "% Injected Dose per Organ"},
      {"measurement": "% Injected Dose per Organ, Brain", "setting": "[3]; 1 min", "value": "0.08 ± 0.02", "unit": "% Injected Dose per Organ"},
      {"measurement": "% Injected Dose per Organ, Heart", "setting": "[3]; 1 min", "value": "0.66 ± 0.06", "unit": "% Injected Dose per Organ"},
      {"measurement": "% Injected Dose per Organ, Kidney (one)", "setting": "[3]; 1 min", "value": "4.25 ± 0.52", "unit": "% Injected Dose per Organ"},
      {"measurement": "% Injected Dose per Organ, Liver", "setting": "[3]; 1 min", "value": "47.04 ± 6.53", "unit": "% Injected Dose per Organ"},
      {"measurement": "% Injected Dose per Organ, Lungs", "setting": "[3]; 1 min", "value": "5.30 ± 0.23", "unit": "% Injected Dose per Organ"},
      {"measurement": "% Injected Dose per Organ, Spleen", "setting": "[3]; 1 min", "value": "1.12 ± 0.34", "unit": "% Injected Dose per Organ"},
      {"measurement": "% injected dose in heart, 1 min", "setting": "[3]; 1 min, preliminary studies", "value": "0.66 ± 0.06", "unit": "% injected dose"},
      {"measurement": "% Injected Dose per Gram Tissue, Blood", "setting": "[3]; 15 min", "value": "0.30 ± 0.04 % Injected Dose per Gram Tissu"},
      {"measurement": "% Injected Dose per Gram Tissue, Brain", "setting": "[3]; 15 min", "value": "0.02 ± 0.01 % Injected Dose per Gram Tissu"},
      {"measurement": "% Injected Dose per Gram Tissue, Heart", "setting": "[3]; 15 min", "value": "0.57 ± 0.05 % Injected Dose per Gram Tissu"},
      {"measurement": "% Injected Dose per Gram Tissue, Kidney (one)", "setting": "[3]; 15 min", "value": "5.55 ± 0.50 % Injected Dose per Gram Tissu"},
      {"measurement": "% Injected Dose per Gram Tissue, Liver", "setting": "[3]; 15 min", "value": "4.78 ± 1.20 % Injected Dose per Gram Tissu"},
      {"measurement": "% Injected Dose per Gram Tissue, Lungs", "setting": "[3]; 15 min", "value": "2.06 ± 0.21 % Injected Dose per Gram Tissu"},
      {"measurement": "% Injected Dose per Gram Tissue, Spleen", "setting": "[3]; 15 min", "value": "3.15 ± 0.45 % Injected Dose per Gram Tissu"},
      {"measurement": "% Injected Dose per Organ, Blood", "setting": "[3]; 15 min", "value": "5.08 ± 0.71", "unit": "% Injected Dose per Organ"},
      {"measurement": "% Injected Dose per Organ, Brain", "setting": "[3]; 15 min", "value": "0.00 ± 0.00", "unit": "% Injected Dose per Organ"},
      {"measurement": "% Injected Dose per Organ, Heart", "setting": "[3]; 15 min", "value": "0.46 ± 0.04", "unit": "% Injected Dose per Organ"},
      {"measurement": "% Injected Dose per Organ, Kidney (one)", "setting": "[3]; 15 min", "value": "4.79 ± 0.38", "unit": "% Injected Dose per Organ"},
      {"measurement": "% Injected Dose per Organ, Liver", "setting": "[3]; 15 min", "value": "50.24 ± 11.08", "unit": "% Injected Dose per Organ"},
      {"measurement": "% Injected Dose per Organ, Lungs", "setting": "[3]; 15 min", "value": "2.71 ± 0.22", "unit": "% Injected Dose per Organ"},
      {"measurement": "% Injected Dose per Organ, Spleen", "setting": "[3]; 15 min", "value": "2.29 ± 0.42", "unit": "% Injected Dose per Organ"},
      {"measurement": "% Injected Dose per Gram Tissue, Blood", "setting": "[3]; 120 min", "value": "0.06 ± 0.01 % Injected Dose per Gram Tissu"},
      {"measurement": "% Injected Dose per Gram Tissue, Brain", "setting": "[3]; 120 min", "value": "0.00 ± 0.00 % Injected Dose per Gram Tissu"},
      {"measurement": "% Injected Dose per Gram Tissue, Heart", "setting": "[3]; 120 min", "value": "0.47 ± 0.02 % Injected Dose per Gram Tissu"},
      {"measurement": "% Injected Dose per Gram Tissue, Kidney (one)", "setting": "[3]; 120 min", "value": "5.28 ± 0.32 % Injected Dose per Gram Tissu"},
      {"measurement": "% Injected Dose per Gram Tissue, Liver", "setting": "[3]; 120 min", "value": "0.96 ± 0.14 % Injected Dose per Gram Tissu"},
      {"measurement": "% Injected Dose per Gram Tissue, Lungs", "setting": "[3]; 120 min", "value": "1.02 ± 0.13 % Injected Dose per Gram Tissu"},
      {"measurement": "% Injected Dose per Gram Tissue, Spleen", "setting": "[3]; 120 min", "value": "2.89 ± 0.21 % Injected Dose per Gram Tissu"},
      {"measurement": "% Injected Dose per Organ, Blood", "setting": "[3]; 120 min", "value": "1.06 ± 0.20", "unit": "% Injected Dose per Organ"},
      {"measurement": "% Injected Dose per Organ, Brain", "setting": "[3]; 120 min", "value": "0.02 ± 0.01", "unit": "% Injected Dose per Organ"},
      {"measurement": "% Injected Dose per Organ, Heart", "setting": "[3]; 120 min", "value": "0.40 ± 0.04", "unit": "% Injected Dose per Organ"},
      {"measurement": "% Injected Dose per Organ, Kidney (one)", "setting": "[3]; 120 min", "value": "5.17 ± 0.19", "unit": "% Injected Dose per Organ"},
      {"measurement": "% Injected Dose per Organ, Liver", "setting": "[3]; 120 min", "value": "11.06 ± 2.46", "unit": "% Injected Dose per Organ"},
      {"measurement": "% Injected Dose per Organ, Lungs", "setting": "[3]; 120 min", "value": "1.31 ± 0.07", "unit": "% Injected Dose per Organ"},
      {"measurement": "% Injected Dose per Organ, Spleen", "setting": "[3]; 120 min", "value": "2.09 ± 0.18", "unit": "% Injected Dose per Organ"},
      {"measurement": "% injected dose in heart, 2 h", "setting": "[3]; 2 h, preliminary studies", "value": "0.40 ± 0.04", "unit": "% injected dose"},
      {"measurement": "Heart/Blood", "setting": "[3]; 1 min", "value": "0.45 ± 0.04"},
      {"measurement": "Heart/Liver", "setting": "[3]; 1 min", "value": "0.17 ± 0.03"},
      {"measurement": "Heart/Lungs", "setting": "[3]; 1 min", "value": "0.20 ± 0.02"},
      {"measurement": "Heart/Blood", "setting": "[3]; 15 min", "value": "1.94 ± 0.33"},
      {"measurement": "Heart/Liver", "setting": "[3]; 15 min", "value": "0.13 ± 0.04"},
      {"measurement": "Heart/Lungs", "setting": "[3]; 15 min", "value": "0.28 ± 0.04"},
      {"measurement": "Heart/Blood", "setting": "[3]; 120 min", "value": "8.06 ± 1.62"},
      {"measurement": "Heart/Liver", "setting": "[3]; 120 min", "value": "0.50 ± 0.07"},
      {"measurement": "Heart/Lungs", "setting": "[3]; 120 min", "value": "0.46 ± 0.07"}
    ]}
  ]
}
